The source made the active and inactive calls.
Key:
Leucine aminopeptidase = target: T1, Leucine aminopeptidase (Plasmodium falciparum 3D7, UniProt Q8IL11); experiment: P. falciparum M17LAP inhibitors, primary screen, biochemical, fluorogenic H-Leu-NHMec substrate, 1536-well (AID 1619); assay type: functional
T1 sequence (Q8IL11 whole entry): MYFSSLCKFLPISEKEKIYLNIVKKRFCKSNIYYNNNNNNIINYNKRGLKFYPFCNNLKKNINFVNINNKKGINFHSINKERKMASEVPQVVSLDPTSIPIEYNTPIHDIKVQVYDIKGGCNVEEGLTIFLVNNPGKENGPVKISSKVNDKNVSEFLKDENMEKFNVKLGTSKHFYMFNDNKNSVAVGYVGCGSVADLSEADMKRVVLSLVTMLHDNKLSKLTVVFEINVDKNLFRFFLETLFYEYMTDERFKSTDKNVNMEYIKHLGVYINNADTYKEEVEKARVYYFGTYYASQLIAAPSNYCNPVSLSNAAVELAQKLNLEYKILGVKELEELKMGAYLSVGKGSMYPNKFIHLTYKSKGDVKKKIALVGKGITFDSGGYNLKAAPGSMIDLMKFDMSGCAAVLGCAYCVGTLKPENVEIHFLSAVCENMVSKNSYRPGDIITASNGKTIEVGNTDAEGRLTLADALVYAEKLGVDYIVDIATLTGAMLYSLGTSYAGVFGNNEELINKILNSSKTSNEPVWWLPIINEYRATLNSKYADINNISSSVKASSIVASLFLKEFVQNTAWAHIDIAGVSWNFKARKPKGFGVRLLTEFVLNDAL

Aminopeptidase N = target: T2, Aminopeptidase N (Plasmodium falciparum FcB1/Columbia, UniProt O96935); experiment: P. falciparum M1AAP inhibitors, biochemical, fluorogenic H-Leu-NHMec substrate, 1536-well (AID 1445); set-up: species or system Plasmodium falciparum 3D7, 3D7
T2 sequence (O96935 whole entry): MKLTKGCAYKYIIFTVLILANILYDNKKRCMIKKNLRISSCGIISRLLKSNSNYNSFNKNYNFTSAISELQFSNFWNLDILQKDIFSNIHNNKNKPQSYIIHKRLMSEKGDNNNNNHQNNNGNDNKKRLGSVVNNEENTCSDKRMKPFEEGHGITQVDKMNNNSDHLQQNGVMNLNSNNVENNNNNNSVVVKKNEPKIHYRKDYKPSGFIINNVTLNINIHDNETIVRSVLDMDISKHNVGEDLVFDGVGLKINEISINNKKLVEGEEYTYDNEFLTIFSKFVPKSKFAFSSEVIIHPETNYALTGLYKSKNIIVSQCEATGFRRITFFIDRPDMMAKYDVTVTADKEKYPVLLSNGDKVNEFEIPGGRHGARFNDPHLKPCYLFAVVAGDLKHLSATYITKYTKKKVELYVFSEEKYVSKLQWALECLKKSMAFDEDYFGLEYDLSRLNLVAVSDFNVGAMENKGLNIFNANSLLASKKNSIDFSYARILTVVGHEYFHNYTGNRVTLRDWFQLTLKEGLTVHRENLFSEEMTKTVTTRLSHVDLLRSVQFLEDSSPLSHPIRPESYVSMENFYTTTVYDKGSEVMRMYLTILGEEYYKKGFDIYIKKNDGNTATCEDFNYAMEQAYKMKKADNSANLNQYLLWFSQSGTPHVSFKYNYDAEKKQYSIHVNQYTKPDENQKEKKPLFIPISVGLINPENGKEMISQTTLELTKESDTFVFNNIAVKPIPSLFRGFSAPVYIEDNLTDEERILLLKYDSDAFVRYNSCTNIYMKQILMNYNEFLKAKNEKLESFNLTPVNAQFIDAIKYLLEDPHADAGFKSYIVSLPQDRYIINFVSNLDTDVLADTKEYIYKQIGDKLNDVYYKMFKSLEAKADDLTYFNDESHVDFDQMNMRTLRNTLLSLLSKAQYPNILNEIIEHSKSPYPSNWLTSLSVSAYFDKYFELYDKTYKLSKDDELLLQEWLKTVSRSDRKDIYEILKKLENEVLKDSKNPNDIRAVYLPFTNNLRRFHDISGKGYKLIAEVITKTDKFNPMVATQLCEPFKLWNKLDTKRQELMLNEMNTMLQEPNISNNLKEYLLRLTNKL

NS3 = NS3 (Hepatitis C virus, UniProt A3EZJ3); experiment: PubChem AID 2173; set-up: species or system Hepacivirus hominis
[1] = target: FAD-linked sulfhydryl oxidase ALR (Homo sapiens, UniProt P55789); experiment: inhibitors of human ALR sulfhydryl oxidase, dose response, biochemical, H2O2 detection, luminescence, cherry-pick (AID 493248)
HeLa = experiment: Cytotoxicity counterscreen assay for transcriptional activators of heat shock protein 70 (Hsp70). [Related pubchem assays: 1203, 1252 ]; assay type: functional; settings: Homo sapiens;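 also: cells exposed to compound for 16 hours before readout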
[2] = target: NAD-dependent protein deacylase sirtuin-5, mitochondrial (Homo sapiens, UniProt Q9NXA8); experiment: SIRT5 desuccinylase inhibitors, dose response, biochemical, fluorescence imaging, cherry-pick, set 5 (AID 720591);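 also: desuccinylation of succinyl peptide AMC substrate read as fluorescence after trypsin release; potency of inhibitors that lower fluorescence and may act on trypsin instead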
[3] = Concentration-dependent survival of SW480 colon cancer line, luminescence detection with CellTiter-Glo, half-maximal inhibitory concentration (AID 1117338); assay type: functional
[4] = RKO cell viability reduction, dose response, CellTiter-Glo luminescence (AID 1117322); assay type: functional
[5] = cytotoxicity toward HCT116 cells – cell-based, CellTiter-Glo luminescence, IC50, dose response (AID 1117332); assay type: functional; settings: HCT-116
[6] = SNU-C1 cell viability reduction, dose response, CellTiter-Glo luminescence (AID 1117323); assay type: functional, cell-based
[7] = cytotoxicity toward Colo320 cells – cell-based, CellTiter-Glo luminescence, IC50, dose response (AID 1117334); assay type: functional; settings: COLO 320
[8] = cytotoxicity toward HT-29 cells – cell-based, CellTiter-Glo luminescence, IC50, dose response (AID 1117330); assay type: functional
[9] = CellTiter-Glo luminescent dose response of DLD-1 viability loss (AID 1117352); assay type: functional
[10] = HCT116 cell viability decrease, GSK3B pretreatment – CellTiter-Glo, IC50, dose response (AID 1117339); assay type: functional; settings: HCT-116
[11] = target: T3, Alkaline phosphatase, tissue-nonspecific isozyme (Homo sapiens, UniProt P05186)
T3 sequence (P05186 whole entry): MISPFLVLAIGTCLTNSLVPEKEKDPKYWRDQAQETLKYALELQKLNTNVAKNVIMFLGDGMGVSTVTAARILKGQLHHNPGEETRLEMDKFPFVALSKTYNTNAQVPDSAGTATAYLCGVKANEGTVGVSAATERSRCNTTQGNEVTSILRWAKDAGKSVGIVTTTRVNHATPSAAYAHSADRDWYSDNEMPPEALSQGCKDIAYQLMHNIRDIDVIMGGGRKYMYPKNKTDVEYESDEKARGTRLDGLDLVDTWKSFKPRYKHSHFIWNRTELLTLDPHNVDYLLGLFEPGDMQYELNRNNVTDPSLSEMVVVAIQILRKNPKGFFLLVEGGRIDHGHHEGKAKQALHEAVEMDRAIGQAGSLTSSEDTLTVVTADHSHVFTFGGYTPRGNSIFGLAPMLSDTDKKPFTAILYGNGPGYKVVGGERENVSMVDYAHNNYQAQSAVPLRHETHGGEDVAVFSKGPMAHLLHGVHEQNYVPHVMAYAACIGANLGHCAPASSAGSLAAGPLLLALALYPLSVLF

[12] = Luminescence Cell-Based Dose Response to Identify Activators of 5'UTR Stem-Loop Driven Prion Protein mRNA Translation in H4-C Neuroglioblastoma Cells. [Related pubchem assays: 1829 (Project Summary), 1814 (Primary HTS)]; assay type: functional
[13] = Luminescence Cell-Based Dose Response HTS to Identify Activators of Luciferase Translation or Activity in H4 […] Cells. [Related pubchem assays: 1829 (Project Summary), 1814 (Primary HTS)]; assay type: functional
[14] = Luminescence Cell-Based Dose Response to Identify Activators of Luciferase Translation or Activity in H4-C Neuroglioblastoma Cells. [Related pubchem assays: 1829 (Project Summary), 1814 (Primary HTS)]; assay type: functional
[15] = Luminescence Cell-Based Dose Confirmation to Identify Activators of 5'UTR Stem-Loop Driven Alpha-Synuclein mRNA Translation in H4 Neuroglioblastoma Cells. [Related pubchem assays: 1829 (Project Summary), 1814 (Primary HTS)]; assay type: functional
[16] = P. falciparum Dd2 growth inhibitors, dose response, SYBR Green, dry powder samples, set 9 (AID 1159568); assay type: functional, cell-based
[17] = target: G-protein coupled receptor 183 (Homo sapiens, UniProt P32249); experiment: SAR confirmation of small molecule antagonists of the EBI2 receptor via a luminescent beta-arrestin assa.; assay type: functional
[18] = P. falciparum 3D7-ScDHODH growth inhibitors, dose response, SYBR Green, dry powder samples (AID 1159570); assay type: functional, cell-based;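 also: parasite growth measured after 72 hours of compound exposure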
[19] = HepG2 cell cytotoxicity, dose response, cytotoxicity control, plate reader, dry powder samples (AID 1159569); assay type: functional, cell-based;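 also: inhibitor potency with signal falling toward the positive control level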
[20] = P. falciparum Dd2 growth inhibitors, dose response, SYBR Green, dry powder samples (AID 1159566); assay type: functional, cell-based;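 also: potency for growth inhibition with lower SYBR green DNA signal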
[21] = P. falciparum ATP4 D1247Y mutant growth inhibitors, dose response, NITD609-resistant line, SYBR Green, dry powder (AID 1159571); assay type: functional, cell-based;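 also: parasites synchronized at ring stage by sorbitol before testing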

Sequence of G-protein coupled receptor 183 (P32249 whole entry): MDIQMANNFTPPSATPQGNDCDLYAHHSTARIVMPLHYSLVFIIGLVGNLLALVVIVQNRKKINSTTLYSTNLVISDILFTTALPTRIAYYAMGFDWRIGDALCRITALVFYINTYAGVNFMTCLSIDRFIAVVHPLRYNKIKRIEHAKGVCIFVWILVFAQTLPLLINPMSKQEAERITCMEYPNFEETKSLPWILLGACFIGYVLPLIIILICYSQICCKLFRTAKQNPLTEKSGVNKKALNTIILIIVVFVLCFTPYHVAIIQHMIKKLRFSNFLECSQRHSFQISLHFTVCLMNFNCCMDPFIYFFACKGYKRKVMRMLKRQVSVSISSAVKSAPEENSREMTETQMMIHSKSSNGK
Sequence of NAD-dependent protein deacylase sirtuin-5, mitochondrial (Q9NXA8 whole entry): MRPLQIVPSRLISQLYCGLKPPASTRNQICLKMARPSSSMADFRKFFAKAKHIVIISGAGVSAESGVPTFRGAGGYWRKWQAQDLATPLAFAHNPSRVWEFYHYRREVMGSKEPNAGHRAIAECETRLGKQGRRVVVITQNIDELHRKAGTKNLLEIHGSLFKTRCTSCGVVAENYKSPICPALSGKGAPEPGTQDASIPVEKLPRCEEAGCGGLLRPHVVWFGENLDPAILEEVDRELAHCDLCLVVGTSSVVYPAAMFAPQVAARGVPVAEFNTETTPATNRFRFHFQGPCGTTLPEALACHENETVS
Sequence of FAD-linked sulfhydryl oxidase ALR (P55789 whole entry): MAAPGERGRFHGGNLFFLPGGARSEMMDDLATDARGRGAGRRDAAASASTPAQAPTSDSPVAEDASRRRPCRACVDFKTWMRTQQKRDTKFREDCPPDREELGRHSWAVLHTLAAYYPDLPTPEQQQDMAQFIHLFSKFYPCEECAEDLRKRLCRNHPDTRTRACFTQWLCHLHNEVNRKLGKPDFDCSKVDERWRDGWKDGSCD
Sequence of NS3 (A3EZJ3 whole entry): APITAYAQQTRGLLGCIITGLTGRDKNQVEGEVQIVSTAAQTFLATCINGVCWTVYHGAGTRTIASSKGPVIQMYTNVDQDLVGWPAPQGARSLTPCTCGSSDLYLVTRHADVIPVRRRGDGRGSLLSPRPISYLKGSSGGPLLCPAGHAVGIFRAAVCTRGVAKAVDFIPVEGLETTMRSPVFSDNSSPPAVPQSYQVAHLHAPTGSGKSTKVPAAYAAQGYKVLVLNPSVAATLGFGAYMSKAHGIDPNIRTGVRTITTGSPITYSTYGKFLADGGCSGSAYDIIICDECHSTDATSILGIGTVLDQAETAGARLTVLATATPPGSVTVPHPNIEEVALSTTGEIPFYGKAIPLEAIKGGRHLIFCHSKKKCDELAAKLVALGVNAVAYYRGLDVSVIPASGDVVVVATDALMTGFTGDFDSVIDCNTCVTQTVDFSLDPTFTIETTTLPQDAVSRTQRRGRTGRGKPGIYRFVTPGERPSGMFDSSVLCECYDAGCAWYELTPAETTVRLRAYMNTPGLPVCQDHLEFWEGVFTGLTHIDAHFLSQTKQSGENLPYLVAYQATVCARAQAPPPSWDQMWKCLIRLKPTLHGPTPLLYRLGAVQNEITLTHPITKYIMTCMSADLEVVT

For `COc1ccc(S(=O)(=O)NC2=NC(=O)/C(=C/c3ccco3)S2)cc1`, the IC50 (Leucine aminopeptidase) was 124 µM (active), the IC50 (Aminopeptidase N) was 99.7 µM (active) and the IC50 (NS3) was 6.31 µM (active). The AC50 [1] was 14.6 µM (active).
With `O=C(Oc1ccc(F)cc1C(=O)/C=C/c1cccs1)c1cccc([N+](=O)[O-])c1` the CC50 (HeLa) was > 33 µM (not active).
In the case of `CC(C)N(C(=O)[C@H]1C[C@H](CC(=O)NCc2cccc(C(F)(F)F)c2)C(=O)N2CCc3c([nH]c4cc(CCC(=O)N(C)C)ccc34)[C@]12C)C(C)C`, the AC50 [2] is reported as > 30 µM (inactive).
For `CCOC(=O)[C@H](CCc1ccccc1)N[C@@H](C)C(=O)N1C(=O)N(C)C[C@H]1C(=O)O`, the IC50 [3] was > 20 µM (inactive), the IC50 [4] was > 20 µM (inactive) and the IC50 [5] was > 20 µM (inactive). The IC50 [6] was > 20 µM (inactive), the IC50 [7] was > 20 µM (inactive) and the IC50 [8] was > 20 µM (inactive). For the same compound, the IC50 [9] was > 20 µM (inactive) and the IC50 [10] was > 20 µM (inactive).
With `Oc1c(/C=N/Nc2cccc3cccnc23)ccc2ccccc12` the EC50 [11] was > 100 µM (not active).
With `COc1ccc(C(=O)/N=c2\sc3c(C)ccc(OC)c3n2C)cc1OC` the EC50 [12] was 0.484 µM (active), the EC50 [13] was < 0.1 µM (inconclusive) and the EC50 [14] was 0.405 µM (active). The EC50 [15] was 0.256 µM (active).
In the case of `COc1ccc(S(=O)(=O)N(C)C[C@H]2Oc3ccc(NC(=O)Cc4cn(C)c5ccccc45)cc3C(=O)N([C@H](C)CO)C[C@@H]2C)cc1`, the AC50 [16] is reported as 0.39 µM (active).
For `O=C(/C=C/c1ccc(Br)cc1)N1CCN(C(=O)c2ccccc2)CC1`, the IC50 [17] was 0.00062 µM (active).
With `Cc1ccc(CN2CCN(C(=O)/C=C/c3ccc(Br)cc3)CC2)cc1` the IC50 [17] was 0.00177 µM (active).
With `COc1cccc(CN2[C@H](CO)[C@@H](c3ccccc3)C23CN(Cc2ccccc2OC)C3)c1` the AC50 [18] was 0.999 µM (active), the AC50 [19] was 23.9 µM (active) and the AC50 [16] was 1.31 µM (active). For the same compound, the AC50 [20] was 0.47 µM (active) and the AC50 [21] was 0.875 µM (active).
In the case of `CSc1ccc(/C=C2/C(C)=C(CC(=O)O)c3cc(F)ccc32)cc1` [SULINDAC SULFIDE], the IC50 [3] is reported as 20 µM (inactive), the IC50 [4] is reported as > 20 µM (inactive) and the IC50 [5] is reported as > 20 µM (inactive). For the same compound, the IC50 [6] was 12 µM (inactive), the IC50 [7] was > 20 µM (inactive) and the IC50 [8] was > 20 µM (inactive). For the same compound, the IC50 [9] was > 20 µM (inactive) and the IC50 [10] was > 20 µM (inactive).

Source: ChEMBL document CHEMBL1201862, “PubChem BioAssay data set” (2004)
